The nature of series [1]: Encapsulation efficiency of lipid nanoparticles (Quant-it Ribogreen RNA quantification assay). The series is classed as physicochemical. As to conditions: LNP encapsulating hEPO mRNA. The essentials: (§1)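 Ribogreen fluorescence quantifies encapsulated mRNA and backscatter (173°) DLS sizes the particles. These are microfluidically mixed four-component LNPs in DPBS after dialysis.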

A short description of series [2]: Apparent pKa of LNP formulations (TNS fluorescence assay). The conditions noted are these: LNP cationic lipid/DSPC/cholesterol/DMG-PEG 50/10/38.5/1.5 mol %.
Description: The apparent pKa of each formulation was determined using an assay based on fluorescence of 2-(p-toluidino)-6-napthalene sulfonic acid (TNS). LNP formulations comprising of cationic lipid/DSPC/cholesterol/DMG-PEG (50/10/38.5/1.5 mol %) in PBS were prepared as described above. TNS was prepared as a 300 uM stock solution in distilled water. LNP formulations were diluted to 0.1 mg/ml total lipid in 3 mL of buffered solutions containing 50 mM sodium citrate, 50 mM sodium phosphate, 50 mM sodium borate, and 30 mM sodium chloride where the pH ranged from 3 to 9. An aliquot of the TNS solution was added to give a final concentration of 0.1 mg/ml and following vortex mixing fluorescence intensity was measured at room temperature in a Molecular Devices Spectramax iD3 spectrometer using excitation and mission wavelengths of 325 nm and 435 nm. A sigmoidal best fit analysis was applied to the fluorescence data and the pKa value was measured as the pH giving rise to half-maximal fluorescent intensity.
Series [3] concerns human erythropoietin (hEPO) mRNA. Briefly: Animal study: hEPO expression after tail vein injection of LNPs encapsulating hEPO mRNA (serum ELISA). In kind it is in vivo. The conditions noted are these: hEPO level, female ICR mice, 0.5 mg/kg, 6 hours post administration; for Expression at 6 h (μg/ml): class symbols, Table 3. The procedure, abridged: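 Female ICR mice (6-8 weeks) received LNPs carrying hEPO mRNA by tail vein injection at 0.5 mg/kg, with MC3 LNPs dosed the same way as positive control. Blood was drawn at set times (e.g., 6 h) and serum separated. hEPO was quantified by ELISA and reported as μg/ml.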

Series [4] is described as follows: Lipid nanoparticle size by dynamic light scattering (Malvern Zetasizer Nano ZS). The conditions noted are these: LNP: cationic lipid/DSPC/cholesterol/PEG-lipid 50:10:38.5:1.5, hEPO mRNA. The series is classed as physicochemical. The essentials: as §1

Take `CCCCCCC(CCCCCC)CC(=O)NCCCCCN(CCCCCOC(=O)CC(CCCCCC)CCCCCC)CCN(CCO)C1CC1` [Compound 153]: in series [1] (Table 3), the “Encapsulation Efficiency” value amounted to 85.5%. In series [2] (Table 3), the “Apparant Pka” value is on record as 6.621. Moreover, the “Expression at 6 h (μg/ml)” value in series [3] is listed as “A (≥2)”. In series [4] (Table 3), the polydispersity is 0.059 and the size nm amounted to 107.4 nm.

For the compound `CCCCCCCCC(CCCCCC)CNC(=O)CCCCCN(CCCCCC(=O)NCC(CCCCCC)CCCCCCCC)CCN(CCO)C1CCC1` (centres unmarked) [Compound 118], the “Encapsulation Efficiency” value in series [1] (Table 3) worked out at 98.9%. In series [2] (Table 3), the “Apparant Pka” value was 6.523. Further, the “Expression at 6 h (μg/ml)” value in series [3] is on record as “A (≥2)”. Moreover, in series [4] (Table 3), the polydispersity is 0.057 and the size nm was determined as 62.72 nm.

For `CCCCCCCCC(CCCCCC)COC(=O)NCCCCN(CCCCNC(=O)OCC(CCCCCC)CCCCCCCC)CCN(CCO)C1CCCCC1` (centres unmarked) [Compound 124], in series [1] (Table 3), the “Encapsulation Efficiency” value is reported as 96.9%. Further, in series [2] (Table 3), the “Apparant Pka” value is given as 6.984. Moreover, in series [3], the “Expression at 6 h (μg/ml)” value is given as “A (≥2)”. In series [4] (Table 3), this compound showed a polydispersity of 0.061 and a size nm of 64.66 nm.

On to `CCCCCCCCC(CCCCCC)COC(=O)CCCCCN(CCCCCC(=O)OCC(CCCCCC)CCCCCCCC)CCN(CCO)C1CCC1` (centres unmarked) [Compound 1], for which the “Encapsulation Efficiency” value in series [1] (Table 2) stood at 95.7%. Also, the “Apparant Pka” value in series [2] (Table 2) stood at 6.40. The “Expression at 6 h” value in series [3] (Table 2) is 16.21 µg/mL. Also, in series [4] (Table 2), the polydispersity was 0.168 and the “size nm” value is listed as 76.5 nm.

For the compound `CCCCCCCCC(CCCCCCCC)COC(=O)CCOCCN(CCOCCC(=O)OCC(CCCCCCCC)CCCCCCCC)CCN(CCO)C1CCC1` [Compound 102], the “Encapsulation Efficiency” value in series [1] (Table 3) is reported as 94.10%. Further, the “Apparant Pka” value in series [2] (Table 3) is given as 6.406. Further, in series [3], the “Expression at 6 h (μg/ml)” value was “B (≥1 and <2)”. Besides, in series [4] (Table 3), the polydispersity was 0.004 and the size nm came out at 70.49 nm.

Take `CCCCCCCCC(CCCCCC)CNC(=O)CCCCCN(CCCCCC(=O)OCC(CCCCCC)CCCCCCCC)CCN(CCC)C1CCC(O)CC1` (centres unmarked) [Compound 133]: the “Encapsulation Efficiency” value in series [1] (Table 3) is 90.6%. Also, in series [2] (Table 3), the “Apparant Pka” value is listed as 6.668. In addition, in series [3], the “Expression at 6 h (μg/ml)” value is listed as “A (≥2)”. In addition, in series [4] (Table 3), the polydispersity amounted to 0.083 and the size nm worked out at 109.90 nm.

For the compound `CCCCCCCCCC(CCCCCCCCC)COC(=O)CCCCCN(CCCCCC(=O)OCC(CCCCCCCCC)CCCCCCCCC)CCN(CCO)C1CCC1` [Compound 51], the “Encapsulation Efficiency” value in series [1] (Table 3) is listed as 94.10%. The “Apparant Pka” value in series [2] (Table 3) came to 6.093. In addition, the “Expression at 6 h (μg/ml)” value in series [3] is listed as “A (≥2)”. In series [4] (Table 3), this compound returned a polydispersity of 0.073 and a size nm of 59.73 nm.

Turning to `CCCCCCCCC(CCCCCC)CNC(=O)CCCCCN(CCCCCC(=O)NCC(CCCCCC)CCCCCCCC)CCN(CCO)C1CC1` (centres unmarked) [Compound 110], the “Encapsulation Efficiency” value in series [1] (Table 3) is 90.0%. For the same compound, the “Apparant Pka” value in series [2] (Table 3) was 6.696. Moreover, the “Expression at 6 h (μg/ml)” value in series [3] was “C (≥0.1 and <1)”. In series [4] (Table 3), this compound registered a polydispersity of 0.063 and a size nm of 91.1 nm.

For the compound `CCCCCCC(CCCCCC)COC(=O)CCCCCN(CCCCCC(=O)OCC(CCCCCC)CCCCCC)CCN(CCO)C1CCC1` [Compound 77], the “Encapsulation Efficiency” value in series [1] (Table 3) came to 90.06%. For the same compound, in series [2] (Table 3), the “Apparant Pka” value is 6.352. Moreover, the “Expression at 6 h (μg/ml)” value in series [3] is “A (≥2)”. Also, in series [4] (Table 3), the polydispersity was 0.038 and the size nm was 69.81 nm.

As to `CCCCCCCCC(CCCCCC)CNC(=O)CCCCCN(CCCCCC(=O)NCC(CCCCCC)CCCCCCCC)CCN(CCC)C1CCC(O)CC1` (centres unmarked) [Compound 135], the “Encapsulation Efficiency” value in series [1] (Table 3) came out at 85.6%. Also, in series [2] (Table 3), the “Apparant Pka” value is given as 6.652. Further, the “Expression at 6 h (μg/ml)” value in series [3] is “C (≥0.1 and <1)”. In series [4] (Table 3), the polydispersity stood at 0.035 and the size nm is recorded as 104.1 nm.

Consider `CCCCCCC(CCCCCC)COC(=O)CCCCCN(CCCCCC(=O)OCC(CCCCCC)CCCCCC)CCN(CCC)C1CCC(O)CC1` (centres unmarked) [Compound 72], for which the “Encapsulation Efficiency” value in series [1] (Table 3) was found to be 93.5%. Further, in series [2] (Table 3), the “Apparant Pka” value was found to be 6.712. Moreover, the “Expression at 6 h (μg/ml)” value in series [3] is given as “A (≥2)”. In series [4] (Table 3), this compound yielded a polydispersity of 0.109 and a size nm of 113.9 nm.

In the case of `CCCCCCCCC(CCCCCC)C(CC)OC(=O)CCCCCN(CCCCCC(=O)OC(CC)C(CCCCCC)CCCCCCCC)CCN(CCO)C1CCC1` (centres unmarked) [Compound 39], in series [1] (Table 3), the “Encapsulation Efficiency” value is on record as 98.8%. Besides, the “Apparant Pka” value in series [2] (Table 3) was found to be 6.061. The “Expression at 6 h (μg/ml)” value in series [3] was “C (≥0.1 and <1)”. In series [4] (Table 3), this compound yielded a polydispersity of 0.043 and a size nm of 64.4 nm.

For `CCCCCCCCC(CCCCCC)CC(=O)NCCCCCN(CCCCCNC(=O)CC(CCCCCC)CCCCCCCC)CCN(CCO)C1CC1` (centres unmarked) [Compound 113], the “Encapsulation Efficiency” value in series [1] (Table 3) was 91.2%. Besides, the “Apparant Pka” value in series [2] (Table 3) is 6.728. For the same compound, the “Expression at 6 h (μg/ml)” value in series [3] is on record as “A (≥2)”. In series [4] (Table 3), this compound gave a polydispersity of 0.04 and a size nm of 90 nm.

On to `CCCCCC/C=C\COC(=O)CCCCCN(CCCC(=O)OC(CCCCCCC)CCCCCCC)CCN(CCO)C1CCC1` [Compound 46], for which the “Encapsulation Efficiency” value in series [1] (Table 3) came out at 93.8%. For the same compound, the “Apparant Pka” value in series [2] (Table 3) is 6.307. In series [3], the “Expression at 6 h (μg/ml)” value is “C (≥0.1 and <1)”. Besides, in series [4] (Table 3), the polydispersity was 0.073 and the size nm was 110.4 nm.

With `CCCCCCCCC(CCCCCC)CNC(=O)CCCCCN(CCCCCC(=O)NCC(CCCCCC)CCCCCCCC)CCN(CCO)C1CC(O)C1` (centres unmarked) [Compound 134], the “Encapsulation Efficiency” value in series [1] (Table 3) is 87.9%. Also, in series [2] (Table 3), the “Apparant Pka” value was determined as 6.442. Moreover, the “Expression at 6 h (μg/ml)” value in series [3] is given as “A (≥2)”. In series [4] (Table 3), this compound showed a polydispersity of 0.033 and a size nm of 105.50 nm.

As for `CCCCCCCCC(CCCCCC)CC(=O)COCCCCN(CCCCCOC(=O)CC(CCCCCC)CCCCCCCC)CCN(CCO)C1CCCC1` (centres unmarked) [Compound 25], in series [1] (Table 3), the “Encapsulation Efficiency” value is 96.7%. The “Apparant Pka” value in series [2] (Table 3) was 6.334. For the same compound, in series [3], the “Expression at 6 h (μg/ml)” value is “A (≥2)”. Further, in series [4] (Table 3), the polydispersity is reported as 0.032 and the size nm came to 74.3 nm.

On to `CCCCCCCCCCC(CCCCCC)COC(=O)CCCCN(CCCCC(=O)OCC(CCCCCC)CCCCCCCCCC)CCN(CCO)C1CCC1` (centres unmarked) [Compound 42], for which the “Encapsulation Efficiency” value in series [1] (Table 3) is given as 96.4%. For the same compound, in series [2] (Table 3), the “Apparant Pka” value is given as 6.196. In addition, in series [3], the “Expression at 6 h (μg/ml)” value is “C (≥0.1 and <1)”. In addition, in series [4] (Table 3), the polydispersity came to 0.065 and the size nm worked out at 65.63 nm.

Take `CCCCCCCC(CCCCCCC)COC(=O)CCCCCN(CCCCCC(=O)OCC(CCCCCCC)CCCCCCC)CCN(CCO)C1CCC1` [Compound 49]: the “Encapsulation Efficiency” value in series [1] (Table 3) was found to be 94.1%. Further, the “Apparant Pka” value in series [2] (Table 3) was found to be 6.249. The “Expression at 6 h (μg/ml)” value in series [3] is on record as “A (≥2)”. In series [4] (Table 3), this compound came in with a polydispersity of 0.075 and a size nm of 65.13 nm.

Take `CCCCC/C=C\CCCC(=O)C(CC/C=C\CCCCC)C(CCC/C=C\CCCCC)OC(=O)CCCCCN(CCCCCC(=O)OCCC/C=C/CCCCC)CCN(CCO)C1CCC1` (centres unmarked) [Compound 101]: in series [1] (Table 3), the “Encapsulation Efficiency” value is on record as 85.5%. Further, the “Apparant Pka” value in series [2] (Table 3) was found to be 6.071. Moreover, in series [3], the “Expression at 6 h (μg/ml)” value is “B (≥1 and <2)”. In series [4] (Table 3), the polydispersity was determined as 0.067 and the size nm turned out to be 72 nm.

(Values after patent US11472766B2, “Lipid nanoparticle composition” (Suzhou Abogen Biosciences Co., Ltd., priority 2020, dated 2022).)
